Data published in article PMC6446940 (ChemMedChem, 2018).
Like-named read-outs stand apart in the source and are kept apart here.

Columns and labels:
[1] = tested on: HIV-1 Env pseudovirus Du422, clone 1; test: Single-cycle assay TZM-bl, Env pseudovirus panel; conditions: TZM-bl
[2] = tested on: HIV-1 Env pseudovirus BJ613.W6M.ENV.E1; test: Single-cycle assay, Paired Infant and Maternal Env clones
[3] = tested on: HIV-1 Env pseudovirus ZM109F.PB4; test: Single-cycle assay TZM-bl, Env pseudovirus panel; conditions: TZM-bl
[4] = tested on: HIV-1 Env pseudovirus BG505.W6M.ENV.C2; test: Single-cycle assay, Paired Infant and Maternal Env clones
[5] = tested on: HIV-1 Env pseudovirus ML274.W0M.ENV.B1; test: as above
[6] = tested on: HIV-1 Env pseudovirus HIV-16936-2, clone 21; test: Single-cycle assay TZM-bl, Env pseudovirus panel; conditions: TZM-bl
[7] = tested on: HIV-1 Env pseudovirus 1054.TC4.1499; test: Single-cycle assay TZM-bl, Env pseudovirus panel; conditions: TZM-bl
[8] = tested on: HIV-1 panel of Paired Infant (B) and Maternal (M) Env Molecular Clones; test: Single-cycle assay, means over Paired Infant and Maternal Env clones
[9] = tested on: HIV-1 Env pseudovirus QD435.100M.ENV.E1; test: Single-cycle assay TZM-bl, Env pseudovirus panel
[10] = tested on: HIV-1 Env pseudovirus QB099.391M.ENV.C8; test: Single-cycle assay TZM-bl, Env pseudovirus panel; conditions: TZM-bl
[11] = tested on: HIV-1 Env pseudovirus Q259ENV.W6; test: Single-cycle assay TZM-bl, Env pseudovirus panel; conditions: TZM-bl
[12] = tested on: HIV-1 Env pseudovirus REJO4541, clone 67; test: Single-cycle assay TZM-bl, Env pseudovirus panel
[13] = tested on: HIV-1 Env pseudovirus HIV-25925-2, clone 22; test: Single-cycle assay TZM-bl, Env pseudovirus panel
[14] = tested on: HIV-1 Env pseudovirus MI206.W0M.ENV.D1; test: Single-cycle assay, Paired Infant and Maternal Env clones
[15] = tested on: HIV-1 Env pseudovirus WEAUd15.410.5017; test: Single-cycle assay TZM-bl, Env pseudovirus panel; conditions: TZM-bl
[16] = tested on: HIV-1 Env pseudovirus B1206.W6P.ENV.A1A; test: Single-cycle assay, Paired Infant and Maternal Env clones
[17] = tested on: HIV-1 Env pseudovirus BG505-T332N; test: Single-cycle assay TZM-bl, Env pseudovirus panel; conditions: TZM-bl
[18] = tested on: HIV-1 Env pseudovirus THRO4156, clone 18; test: Single-cycle assay TZM-bl, Env pseudovirus panel
[19] = tested on: HIV-1 Env pseudovirus BK184.W6M.ENV.D2; test: Single-cycle assay, Paired Infant and Maternal Env clones
[20] = tested on: HIV-1 Env pseudovirus QA790.204I.ENV.C8; test: Single-cycle assay TZM-bl, Env pseudovirus panel; conditions: TZM-bl
[21] = tested on: HIV-1 Env pseudovirus B41; test: Single-cycle assay TZM-bl, Env pseudovirus panel; conditions: TZM-bl
[22] = tested on: HIV-1 Env pseudovirus MJ613.W0M.ENV.A2; test: Single-cycle assay, Paired Infant and Maternal Env clones
[23] = tested on: HIV-1 Env pseudovirus 9021_14.B2.4571; test: Single-cycle assay TZM-bl, Env pseudovirus panel; conditions: TZM-bl
[24] = tested on: control pseudovirus VSV-G; test: microbe, parasite or virus in culture; assay type: cell-based; conditions: Pseudovirus, U87/CD4/CCR5
[25] = biological target: HIV-1 Reverse Transcriptase (RT) (Human immunodeficiency virus type 1 group M subtype B, UniProt P04585); test: biochemical; assay type: biochemical
[26] = tested on: HIV-1 Env pseudovirus HIV-25711-2, clone 4; test: Single-cycle assay TZM-bl, Env pseudovirus panel; conditions: TZM-bl
[27] = tested on: HIV-1 Env pseudovirus HIV-00836-2, clone 5; test: Single-cycle assay TZM-bl, Env pseudovirus panel; conditions: TZM-bl
[28] = tested on: HIV-1 Env pseudovirus BL274.W6M.ENV.A3; test: Single-cycle assay, Paired Infant and Maternal Env clones
[29] = tested on: HIV-1 Env pseudovirus CRF02_AG, clone 257; test: Single-cycle assay TZM-bl, Env pseudovirus panel; conditions: TZM-bl
[30] = tested on: HIV-1 Env pseudovirus CAP210.2.00.E8; test: Single-cycle assay TZM-bl, Env pseudovirus panel; conditions: TZM-bl
[31] = tested on: HIV-1 Env pseudovirus QB726.70M.ENV.C4; test: Single-cycle assay TZM-bl, Env pseudovirus panel; conditions: TZM-bl
[32] = tested on: HIV-1 Env pseudovirus TRO, clone 11; test: Single-cycle assay TZM-bl, Env pseudovirus panel; conditions: TZM-bl
[33] = tested on: HIV-1 Env pseudovirus MK184.W0M.ENV.E4; test: Single-cycle assay, Paired Infant and Maternal Env clones
[34] = tested on: HIV-1 Env pseudovirus RHPA4259, clone 7; test: Single-cycle assay TZM-bl, Env pseudovirus panel; conditions: TZM-bl
[35] = Human immunodeficiency virus 1, read-out: IC50 Mean ± SEM: Infant (B)
[36] = Human immunodeficiency virus 1, read-out: IC50 Mean ± SEM: Mother (M)
[37] = Human immunodeficiency virus 1, read-out: IC50 Mean ± SEM: Overall (n=10)

| Compound | IC50 [1] | IC50 [2] | IC50 [3] | IC50 [4] | IC50 [5] | IC50 [6] | IC50 [7] | IC50 [8, 35] | IC50 [8, 36] | IC50 [8, 37] | IC50 [9] | IC50 [10] | IC50 [11] | IC50 [12] | IC50 [13] | IC50 [14] | IC50 [15] | IC50 [16] | IC50 [17] | IC50 [18] | also measured |
| --- | --- | --- | --- | --- | --- | --- | --- | --- | --- | --- | --- | --- | --- | --- | --- | --- | --- | --- | --- | --- | --- |
| NCC(NC(=O)c1ccc(-c2ccc3c(c2)OCO3)[nH]1)c1ncc(CO)s1 (centres unmarked) [NBD-14123, N-(2-amino-1-(5-(hydroxymethyl)thiazol-2-yl)ethyl)-5-(benzo[d][1,3]dioxol-5-yl)-1H-pyrrole-2-carboxamide] | 2.5 ± 0.3 µM | 2.5 ± 0.1 µM | 3 ± 0.2 µM | 4.4 ± 0.1 µM | 5.6 ± 0.4 µM | 4.4 ± 0.5 µM | 2.4 ± 0.3 µM | 4.2e-06 ± 6e-07 M | 4.1e-06 ± 4e-07 M | 4.2e-06 ± 3e-07 M | 5.3 ± 0.4 µM | 4.4 ± 0.6 µM | 2.3 ± 0.2 µM | 3.4 ± 0.2 µM | 5.6 ± 0.3 µM | 3.4 ± 0.3 µM | 3.4 ± 0.2 µM | 4.9 ± 0.3 µM | 4 ± 0.5 µM | 3.1 ± 0.1 µM | IC50 [19]: 3.6 ± 0.1 µM; IC50 [20]: 1.4 ± 0.2 µM; IC50 [21]: 2.8 ± 0.3 µM; IC50 [22]: 4 ± 0.1 µM; IC50 [23]: 2.1 ± 0.6 µM; IC50 [24]: 45.3 ± 2.3 µM; IC50 [25]: 39.5 ± 2.8 µM; IC50 [26]: 5.7 ± 0.7 µM; IC50 [27]: 3.2 ± 0.2 µM; IC50 [28]: 5.7 ± 0.3 µM; IC50 [29]: 4.4 ± 0.1 µM; IC50 [30]: 5.3 ± 0.2 µM; IC50 [31]: 3.5 ± 0.1 µM; IC50 [32]: 3.6 ± 0.2 µM; IC50 [33]: 3.7 ± 0.1 µM; IC50 [34]: 3.1 ± 0.7 µM |
| CNCC(NC(=O)c1ccc(-c2ccc3c(c2)OCO3)[nH]1)c1nc(CO)cs1 (centres unmarked) [NBD-14159, 5-(benzo[d][1,3]dioxol-5-yl)-N-(1-(4-(hydroxymethyl)thiazol-2-yl)-2-(methylamino)ethyl)-1H-pyrrole-2-carboxamide] | 3.1 ± 0.3 µM | 3 ± 0.1 µM | 3.3 ± 0.1 µM | 4.7 ± 0.5 µM | 5.4 ± 0.5 µM | 5.3 ± 0.2 µM | 4.1 ± 0.1 µM | 4e-06 ± 3e-07 M | 3.8e-06 ± 5e-07 M | 3.9e-06 ± 3e-07 M | 3.5 ± 0.2 µM | 5 ± 0.1 µM | 1.3 ± 0.2 µM | 3.1 ± 0.4 µM | 4.2 ± 0.5 µM | 3.4 ± 0.2 µM | 3.3 ± 0.2 µM | 4 ± 0.3 µM | 3.3 ± 0.2 µM | 2.7 ± 0.2 µM | IC50 [19]: 4.2 ± 0.1 µM; IC50 [20]: 2.1 ± 0.1 µM; IC50 [21]: 1.7 ± 0.1 µM; IC50 [22]: 3.1 ± 0.3 µM; IC50 [23]: 3.7 ± 0.3 µM; IC50 [24]: 41.3 ± 3.4 µM; IC50 [26]: 5.8 ± 0.3 µM; IC50 [27]: 4.9 ± 0.3 µM; IC50 [28]: 4.2 ± 0.5 µM; IC50 [29]: 4.8 ± 0.2 µM; IC50 [30]: 3.5 ± 0.2 µM; IC50 [31]: 2.7 ± 0.2 µM; IC50 [32]: 4.4 ± 0.6 µM; IC50 [33]: 2.6 ± 0.1 µM; IC50 [34]: 3.7 ± 0.4 µM |
